Patent EP3858818A1, “TRIKETONE COMPOUND, PREPARATION METHOD THEREFOR AND USE THEREOF, AND HERBICIDE” (Shandong Cynda Chemical Co., LTD., priority 2018, dated 2020)

Legend:
Format in all cases: in vivo
Digitaria sanguinalis [1] = test: Re-screen assay at low dose (pot-culture method); conditions: post-emergence spray, 30 days
Excerpt: (§1) Preliminary screening test (pot-culture method): the targets of the test are Echinochloa crusgalli, Digitaria sanguinalis, Setaria viridis, Amaranthus tricolor, Chenopodium album, Abutilontheophrasti. Spraying the stems and leaves after seedlings: taking a paper cup with an inner diameter of 7 cm and fill it with composite soil (vegetable garden soil: seedling substrate, 1: 2, v/v) to 3/4 of the cup. Sowing weeds directly, cover it with 0.2 cm soil and wait until it grows to 4-5 leaves stage for later use. The compounds of the invention and the aforementioned comparative compound D1 are applied in an automatic spray tower at a dose of 150 g.a.i/ha (g/ha). After the liquid on the crop leaves is dried in the air, the crops are transferred to the greenhouse for cultivation (humidity 70%), and the results were investigated after 30 days.
(§2) The growth inhibition rate evaluation method is a visual method. The growth inhibition rate is rated specifically according to the conditions shown in table 2, and the test results are shown in Table 3.
(§3) The same method as in test example 1 is used to conduct re-screen assays at the low dose for representative compounds, and the results are shown in Table 4.

Aegilops squarrosa = test: Re-screen assay at low dose (pot-culture method); conditions: post-emergence spray, 30 days
Excerpt: as §1, §2, §3

Bromus japonicus = test: Re-screen assay at low dose (pot-culture method); conditions: post-emergence spray, 30 days
Excerpt: as §1, §2, §3

Avena fatua = test: Re-screen assay at low dose (pot-culture method); conditions: post-emergence spray, 30 days
Excerpt: as §1, §2, §3

Echinochloa crusgalli [2] = test: Re-screen assay at low dose (pot-culture method); conditions: post-emergence spray, 30 days
Excerpt: as §1, §2, §3

Alopecurus aequalis = test: Re-screen assay at low dose (pot-culture method); conditions: post-emergence spray, 30 days
Excerpt: as §1, §2, §3

Alopecurus japonicus = test: Re-screen assay at low dose (pot-culture method); conditions: post-emergence spray, 30 days
Excerpt: as §1, §2, §3

Setaria viridis [3] = test: Re-screen assay at low dose (pot-culture method); conditions: post-emergence spray, 30 days
Excerpt: as §1, §2, §3

Digitaria sanguinalis [4] = test: Preliminary screening test (pot-culture method), post-emergence stem and leaf spray; conditions: 150 g.a.i/ha; stems and leaves sprayed at 4-5 leaves stage; investigated after 30 days; visual rating
Excerpt: as §1, §2

Abutilon theophrasti = test: as above; conditions: 150 g.a.i/ha; stems and leaves sprayed at 4-5 leaves stage; investigated after 30 days; visual rating
Excerpt: as §1, §2

Chenopodium album = test: as above; conditions: 150 g.a.i/ha; stems and leaves sprayed at 4-5 leaves stage; investigated after 30 days; visual rating
Excerpt: as §1, §2

Amaranthus tricolor = test: as above; conditions: 150 g.a.i/ha; stems and leaves sprayed at 4-5 leaves stage; investigated after 30 days; visual rating
Excerpt: as §1, §2

Echinochloa crusgalli [5] = test: as above; conditions: 150 g.a.i/ha; stems and leaves sprayed at 4-5 leaves stage; investigated after 30 days; visual rating
Excerpt: as §1, §2

Setaria viridis [6] = test: as above; conditions: 150 g.a.i/ha; stems and leaves sprayed at 4-5 leaves stage; investigated after 30 days; visual rating
Excerpt: as §1, §2

[7] = system: Aegilops squarrosa, Avenafatua, Bromus japonicus, Alopecurus aequalis, and Alopecurus japonicus; test: Re-screening with reduced concentration, summary in text for gramineous weeds of wheat fields; conditions: at three application concentrations (120, 60, 30 g.a.i/ha); result in words

Compound: Cc1cccc(C)c1-n1c(=O)c2cc(C(=O)C3=C(O)CCCC3=O)ccc2n(C)c1=O [Compound D1]
- Inhibition Level Digitaria sanguinalis (Digitaria sanguinalis [1]; 30 g.a.i/ha): 3 (weeds or crops are subject to severe growth inhibition.)
- Inhibition Level Digitaria sanguinalis (Digitaria sanguinalis [1]; 60 g.a.i/ha): 3 (weeds or crops are subject to severe growth inhibition.)
- Inhibition Level Digitaria sanguinalis (Digitaria sanguinalis [1]; 120 g.a.i/ha): 4 (weeds or crops die.)
- Inhibition Level Aegilops squarrosa (Aegilops squarrosa; 30 g.a.i/ha): 0 (has no influence on the growth of weeds or crops and has no drug effect symptom.)
- Inhibition Level Aegilops squarrosa (Aegilops squarrosa; 60 g.a.i/ha): 1 (slightly affects the growth of weeds or crops, and has no obvious drug effect symptom.)
- Inhibition Level Aegilops squarrosa (Aegilops squarrosa; 120 g.a.i/ha): 2 (has certain effect on weed or crop growth, and has obvious drug effect.)
- Inhibition Level Bromus japonicus (Bromus japonicus; 30 g.a.i/ha): 0 (has no influence on the growth of weeds or crops and has no drug effect symptom.)
- Inhibition Level Bromus japonicus (Bromus japonicus; 60 g.a.i/ha): 0 (has no influence on the growth of weeds or crops and has no drug effect symptom.)
- Inhibition Level Bromus japonicus (Bromus japonicus; 120 g.a.i/ha): 0 (has no influence on the growth of weeds or crops and has no drug effect symptom.)
- Inhibition Level Avena fatua (Avena fatua; 30 g.a.i/ha): 0 (has no influence on the growth of weeds or crops and has no drug effect symptom.)
- Inhibition Level Avena fatua (Avena fatua; 60 g.a.i/ha): 0 (has no influence on the growth of weeds or crops and has no drug effect symptom.)
- Inhibition Level Avena fatua (Avena fatua; 120 g.a.i/ha): 2 (has certain effect on weed or crop growth, and has obvious drug effect.)
- Inhibition Level Echinochloa crusgalli (Echinochloa crusgalli [2]; 30 g.a.i/ha): 3 (weeds or crops are subject to severe growth inhibition.)
- Inhibition Level Echinochloa crusgalli (Echinochloa crusgalli [2]; 60 g.a.i/ha): 3 (weeds or crops are subject to severe growth inhibition.)
- Inhibition Level Echinochloa crusgalli (Echinochloa crusgalli [2]; 120 g.a.i/ha): 4 (weeds or crops die.)
- Inhibition Level Alopecurus aequalis (Alopecurus aequalis; 30 g.a.i/ha): 0 (has no influence on the growth of weeds or crops and has no drug effect symptom.)
- Inhibition Level Alopecurus aequalis (Alopecurus aequalis; 60 g.a.i/ha): 0 (has no influence on the growth of weeds or crops and has no drug effect symptom.)
- Inhibition Level Alopecurus aequalis (Alopecurus aequalis; 120 g.a.i/ha): 1 (slightly affects the growth of weeds or crops, and has no obvious drug effect symptom.)
- Inhibition Level Alopecurus japonicus (Alopecurus japonicus; 30 g.a.i/ha): 0 (has no influence on the growth of weeds or crops and has no drug effect symptom.)
- Inhibition Level Alopecurus japonicus (Alopecurus japonicus; 60 g.a.i/ha): 0 (has no influence on the growth of weeds or crops and has no drug effect symptom.)
- Inhibition Level Alopecurus japonicus (Alopecurus japonicus; 120 g.a.i/ha): 0 (has no influence on the growth of weeds or crops and has no drug effect symptom.)
- Inhibition Level Setaria viridis (Setaria viridis [3]; 30 g.a.i/ha): 3 (weeds or crops are subject to severe growth inhibition.)
- Inhibition Level Setaria viridis (Setaria viridis [3]; 60 g.a.i/ha): 3 (weeds or crops are subject to severe growth inhibition.)
- Inhibition Level Setaria viridis (Setaria viridis [3]; 120 g.a.i/ha): 4 (weeds or crops die.)
- Inhibition Level Digitaria sanguinalis (Digitaria sanguinalis [4]): 4 (weeds or crops die.)
- Inhibition Level Abutilon theophrasti (Abutilon theophrasti): 4 (weeds or crops die.)
- Inhibition Level Chenopodium album (Chenopodium album): 5 (weeds or crops die completely.)
- Inhibition Level Amaranthus tricolor (Amaranthus tricolor): 4 (weeds or crops die.)
- Inhibition Level Echinochloa crusgalli (Echinochloa crusgalli [5]): 4 (weeds or crops die.)
- Inhibition Level Setaria viridis (Setaria viridis [6]): 4 (weeds or crops die.)
- herbicidal activity on gramineous weeds in wheat fields [7]: hardly shows herbicidal activity
